# Test results from patent US20150291598A1 (NOVARTIS AG, priority 2012, published 2015).
# System: P. falciparum (NF54 or 3D7 strain)
# Assay: Assay for P. falciparum proliferation in infected human blood cells (SYBR Green)
# Assay type: cell-based, Plasmodium falciparum
# Conditions: NF54 or 3D7 infected human erythrocytes, 72 hours; read-out: EC50 (nM), inhibitory efficacy in delaying P. falciparum proliferation in infected human blood cells
# Method in brief: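 NF54 or 3D7 parasites in O+ human erythrocytes at 2.5% hematocrit and 0.3% parasitemia final, exposed to compounds 72 h at 37 °C under 93% N2/4% CO2/3% O2.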
row,EC50 [nM],SMILES
1,24,"CN(C(=O)c1cn2c(-c3ccc4c(cnn4C)c3)cnc2cn1)c1ccc(F)cc1 [Compound 106, N-(4-fluorophenyl)-N-methyl-3-(1-methyl-1H-indazol-5-yl)imidazo[1,2-a]pyrazine-6-carboxamide]"

# Same assay, conditions: Plasmodium falciparum, 3D7|NF54, Erythrocyte, in Homo sapiens, 72 h, NF54 or 3D7 infected human erythrocytes, 72 hours; read-out: EC50 (nM), inhibitory efficacy in delaying P. falciparum proliferation in infected human blood cells
row,EC50 [nM],SMILES
1,> 8280,CN(C(=O)c1cn2c(-c3cc4cc(C#N)ccc4[nH]3)cnc2cn1)c1ccc(C#N)cc1 [Compound 252]
2,462,CN(C(=O)c1cn2c(-c3ccc(-n4ccnc4)cc3)cnc2cn1)c1ccc(C#N)cc1 [Compound 146]

# Same assay, conditions: Plasmodium falciparum, Erythrocyte, 72 h, NF54 or 3D7 infected human erythrocytes, 72 hours; read-out: EC50 (nM), inhibitory efficacy in delaying P. falciparum proliferation in infected human blood cells
row,SMILES,EC50 [nM]
1,"CN(C(=O)c1cn2c(-c3ccc(C(F)(F)F)cc3)cnc2cn1)c1ccccn1 [Compound 99, N-methyl-N-(pyridin-2-yl)-3-[4-(trifluoromethyl)phenyl]imidazo[1,2-a]pyrazine-6-carboxamide]",3880
2,"Cc1cccc(-c2cnc3cnc(C(=O)N(C)c4ccc(C#N)cc4)cn23)c1 [Compound 199, N-(4-cyanophenyl)-N-methyl-3-(3-methylphenyl)imidazo[1,2-a]pyrazine-6-carboxamide]",7320
3,"CN(C(=O)c1cn2c(-c3ccc(C(F)(F)F)cc3)cnc2cn1)c1ccc2c(c1)nnn2C [Compound 12, N-methyl-N-(1-methyl-1H-benzo[d][1,2,3]triazol-5-yl)-3-(4-(trifluoromethyl)phenyl)imidazo[1,2-a]pyrazine-6-carboxamide]",4850
4,"CN(C(=O)c1cn2c(-c3ccc(N4CCCC4)cc3)cnc2cn1)c1ccc(C#N)cc1 [Compound 181, N-(4-cyanophenyl)-N-methyl-3-[4-(pyrrolidin-1-yl)phenyl]imidazo[1,2-a]pyrazine-6-carboxamide]",723
5,"CN(C(=O)c1cn2c(-c3ccc(-n4cccn4)cc3)cnc2cn1)c1ccc(F)cc1 [Compound 151, N-(4-fluorophenyl)-N-methyl-3-[4-(1H-pyrazol-1-yl)phenyl]imidazo[1,2-a]pyrazine-6-carboxamide]",673
6,"CNc1ccc(-c2cnc3cnc(C(=O)N(C)c4ccc(C#N)cc4)cn23)cn1 [Compound 246, N-(4-cyanophenyl)-N-methyl-3-[6-(methylamino)pyridin-3-yl]imidazo[1,2-a]pyrazine-6-carboxamide]",310
7,"CN(C(=O)c1cn2c(-c3ccc(-c4ccn[nH]4)cc3)cnc2cn1)c1ccc(Cl)nc1 [Compound 224, N-(6-chloropyridin-3-yl)-N-methyl-3-[4-(1H-pyrazol-5-yl)phenyl]imidazo[1,2-a]pyrazine-6-carboxamide]",149
8,"CN(C)Cc1ccc(-c2cnc3cnc(C(=O)N(C)c4ccc(C#N)cc4)cn23)cc1 [Compound 207, N-(4-cyanophenyl)-3-{4-[(dimethylamino)methyl]phenyl}-N-methylimidazo[1,2-a]pyrazine-6-carboxamide]",4600
9,"CN(C(=O)c1cn2c(-c3ccc(-c4ccco4)cc3)cnc2cn1)c1ccc(C#N)cc1 [Compound 125, N-(4-cyanophenyl)-3-[4-(furan-2-yl)phenyl]-N-methylimidazo[1,2-a]pyrazine-6-carboxamide]",369
10,"Cc1ccc(N(C)Cc2cn3c(-c4ccc(C(N)=O)cc4)cnc3cn2)nc1 [Compound 233, 4-(6-{[methyl(5-methylpyridin-2-yl)amino]methyl}imidazo[1,2-a]pyrazin-3-yl)benzamide]",138
11,"CN(C(=O)c1cn2c(-c3ccc(N4CCCCC4)cc3)cnc2cn1)c1ccc(Cl)nc1 [Compound 216, N-(6-chloropyridin-3-yl)-N-methyl-3-[4-(piperidin-1-yl)phenyl]imidazo[1,2-a]pyrazine-6-carboxamide]",5710
12,"CN(C(=O)c1cn2c(-c3ccc(C(F)(F)F)cc3)cnc2cn1)c1cccnc1F [Compound 54, N-(2-fluoropyridin-3-yl)-N-methyl-3-[4-(trifluoromethyl)phenyl]imidazo[1,2-a]pyrazine-6-carboxamide]",> 9280
13,"CN1CCc2cc(-c3cnc4cnc(C(=O)N(C)c5ccc(C#N)cc5)cn34)ccc21 [Compound 201, N-(4-cyanophenyl)-N-methyl-3-(1-methyl-2,3-dihydro-1H-indol-5-yl)imidazo[1,2-a]pyrazine-6-carboxamide]",1080
14,"COC(C)c1ccc(-c2cnc3cnc(C(=O)N(C)c4ccc(C#N)cc4)cn23)cc1 (stereo not drawn) [Compound 130, N-(4-cyanophenyl)-3-[4-(1-methoxyethyl)phenyl]-N-methylimidazo[1,2-a]pyrazine-6-carboxamide]",176
15,"CN(C(=O)c1cn2c(-c3cnc(N4CCCC4=O)cn3)cnc2cn1)c1ccc(C#N)cc1 [Compound 211, N-(4-cyanophenyl)-N-methyl-3-[5-(2-oxopyrrolidin-1-yl)pyrazin-2-yl]imidazo[1,2-a]pyrazine-6-carboxamide]",9390
16,"CN(C(=O)c1cn2c(-c3ccc(NC(=O)C(N)C4CCC4)cc3)cnc2cn1)c1ccc(C#N)cc1 (stereo not drawn) [Compound 270, 3-[4-(2-amino-2-cyclobutylacetamido)phenyl]-N-(4-cyanophenyl)-N-methylimidazo[1,2-a]pyrazine-6-carboxamide]",605

# Other lines, results leading:
row,EC50 [nM],SMILES
1,2990,"CN(C(=O)c1cn2c(-c3ccc(NC(C)(C)CNC(=O)OC(C)(C)C)cc3)cnc2cn1)c1ccc(C#N)cc1 [Compound 300, tert-butyl N-{2-[(4-{6-[(4-cyanophenyl)(methyl)carbamoyl]imidazo[1,2-a]pyrazin-3-yl}phenyl)amino]-2-methylpropyl}carbamate]"
2,> 10000,"CN(C(=O)c1cn2c(-c3ccc(-c4nnco4)cc3)cnc2cn1)c1ccc(Cl)nc1 [Compound 410, N-(6-chloropyridin-3-yl)-N-methyl-3-[4-(1,3,4-oxadiazol-2-yl)phenyl]imidazo[1,2-a]pyrazine-6-carboxamide]"
3,522,"CN(C(=O)c1cn2c(-c3ccc4c(cnn4C)c3)cnc2cn1)c1ccc(Cl)nc1 [Compound 489, N-(6-chloropyridin-3-yl)-N-methyl-3-(1-methyl-1H-indazol-5-yl)imidazo[1,2-a]pyrazine-6-carboxamide]"
4,6260,"CN(C(=O)c1cn2c(-c3ccc4c(c3)CC(=O)N4)cnc2cn1)c1ccc(Cl)nc1 [Compound 379, N-(6-chloropyridin-3-yl)-N-methyl-3-(2-oxo-2,3-dihydro-1H-indol-5-yl)imidazo[1,2-a]pyrazine-6-carboxamide]"
5,4130,"COc1ncc(-c2cnc3cnc(C(=O)N(C)c4ccc(C#N)cc4)cn23)cn1 [Compound 333, N-(4-cyanophenyl)-3-(2-methoxypyrimidin-5-yl)-N-methylimidazo[1,2-a]pyrazine-6-carboxamide]"
6,17,"COc1cc(F)ccc1N(C)C(=O)c1cn2c(-c3ccc(C(F)(F)F)cc3)cnc2cn1 [Compound 430, N-(4-fluoro-2-methoxyphenyl)-N-methyl-3-[4(trifluoromethyl)phenyl]imidazo[1,2-a]pyrazine]"
7,7880,"CN(C(=O)c1cn2c(-c3ccc(C(F)(F)F)cc3)cnc2cn1)c1ccc(C2CCCC2)cn1 [Compound 412, N-(5-cyclopentylpyridin-2-yl)-N-methyl-3-[4-(trifluoromethyl)phenyl]imidazo[1,2-a]pyrazine-6-carboxamide]"
8,4680,"CN(C(=O)c1cn2c(-c3ccc4[nH]ncc4c3)cnc2cn1)c1ccc(Cl)nc1 [Compound 349, N-(6-chloropyridin-3-yl)-3-(1H-indazol-5-yl)-N-methylimidazo[1,2-a]pyrazine-6-carboxamide]"
9,> 10000,"CN(C)c1cccc(-c2cnc3cnc(C(=O)N(C)c4ccc(Cl)nc4)cn23)c1 [Compound 418, N-(6-chloropyridin-3-yl)-3-[3-(dimethylamino)phenyl]-N-methylimidazo[1,2-a]pyrazine-6-carboxamide]"
10,1280,"COc1cc(N(C)C(=O)c2cn3c(-c4ccc(C(F)(F)F)cc4)cnc3cn2)ccn1 [Compound 296, N-(2-methoxypyridin-4-yl)-N-methyl-3-[4-(trifluoromethyl)phenyl]imidazo[1,2-a]pyrazine-6-carboxamide]"
11,> 6830,"CN(C(=O)c1cn2c(-c3ccc(C(F)(F)F)cc3)cnc2cn1)c1ccc(CN)cc1 [Compound 375, N-[4-(aminomethyl)phenyl]-N-methyl-3-[4-(trifluoromethyl)phenyl]imidazo[1,2-a]pyrazine-6-carboxamide]"
12,3900,"COc1ccc(N(C)C(=O)c2cn3c(-c4ccc(C(F)(F)F)cc4)cnc3cn2)nc1 [Compound 353, N-(5-methoxypyridin-2-yl)-N-methyl-3-[4-(trifluoromethyl)phenyl]imidazo[1,2-a]pyrazine-6-carboxamide]"
13,2760,"CN(C(=O)c1cn2c(-c3ccc(Cl)nc3)cnc2cn1)c1ccc(C#N)cc1 [Compound 439, 3-(6-chloropyridin-3-yl)-N-(4-cyanophenyl)-N-methylimidazo[1,2-a]pyrazine-6-carboxamide]"
14,7090,"CN(C(=O)c1cn2c(-c3ccc(C(F)(F)F)cc3)cnc2cn1)c1ncc(Br)cn1 [Compound 434, N-(5-bromopyrimidin-2-yl)-N-methyl-3-[4-(trifluoromethyl)phenyl]imidazo[1,2-a]pyrazine-6-carboxamide]"
15,2210,"Cc1n[nH]c2ccc(-c3cnc4cnc(C(=O)N(C)c5ccc(Cl)nc5)cn34)cc12 [Compound 320, N-(6-chloropyridin-3-yl)-N-methyl-3-(3-methyl-1H-indazol-5-yl)imidazo[1,2-a]pyrazine-6-carboxamide]"
16,393,"CN(C(=O)c1cn2c(-c3ccc(C(F)(F)F)cc3)cnc2cn1)c1ccc(Cl)nc1Cl [Compound 342, N-(2,6-dichloropyridin-3-yl)-N-methyl-3-[4-(trifluoromethyl)phenyl]imidazo[1,2-a]pyrazine-6-carboxamide]"
17,4510,"CN(C(=O)c1cn2c(-c3ccc(C(F)(F)F)cc3)cnc2cn1)c1ccc(-c2ccccc2)nc1 [Compound 499, N-methyl-N-(6-phenylpyridin-3-yl)-3-[4-(trifluoromethyl)phenyl]imidazo[1,2-a]pyrazine-6-carboxamide]"
